Measured values: patent publication US4937244A, “Substituted 3-aminosydnonimines, processes for their preparation and their use” (Cassella Aktiengesellschaft, priority 1987, dated 1990)
pIC50: −log10 of the molar value. Counter-ions that a name gives are not always drawn.

Test system: arteria pulmonalis of the guinea pig
Assay: Relaxing action on potassium-depolarized, CaCl2-contracted spiral strips of guinea pig pulmonary artery (modified method of Godfraind and Kaba and of Schuman et al)
Assay type: cell-based
Settings: Cavia porcellus; spiral strips depolarized with 40 mmol/l potassium; contraction initiated with 0.5 mmol/l CaCl2; cumulative addition; mean value of 4 to 6 strips of vessel; read-out: IC50 (concentration of test substance which inhibits the contraction by 50%)
Source text: The pharmacological action of the compounds of the formula I has been determined by a modified method of Godfraind and Kaba (Arch. Int. Pharmacodyn. Ther. 196, (Suppl) 35 to 49, 1972) and of Schuman et al (Naunyn-Schmiedeberg's Arch Pharmacol. 289 409 to 418, 1975). […], spiral strips of the arteria pulmonalis of the guinea pig are depolarized with 40 mmol/l of potassium after equilibration in calcium-free tyrode solution. Addition of 0.5 mmol/l of CaCl2 then initiates a contraction. The relaxing action of the test substance is determined by cumulative addition in concentrations in steps of 1/2 log 10. The concentration of test substance which inhibits the contraction by 50% (=IC50, mol/l) is determined from the concentration/effects curve (abscissa: -log mol/l of test substance, ordinate: % inhibition of the maximum concentration, mean value of 4 to 6 strips of vessel).

Compound	pIC50
CC1(C)CCCC(C)(C)N1[n+]1cc(=N)o[n-]1 [a, 3-(2,2,6,6-Tetramethylpiperidino)-sydnonimine hydrochloride]	4.52
CC(C)N1CC(C)(C)N([n+]2cc(=N)o[n-]2)C(C)(C)C1 [b, 3-(2,2,6,6-Tetramethyl-4-isopropyl-piperazin-1-yl)sydnonimine dihydrochloride]	5.52
CC1(C)COCC(C)(C)N1[n+]1cc(=N)o[n-]1 [c, 3-(3,3,5,5-Tetramethylmorpholino)-sydnonimine hydrochloride]	4.00
CCOC(=O)[N-]c1cn(N2CCOCC2)n[o+]1 [d, N-Ethoxycarbonyl-3-morpholinosydnonimine, reference compound]	3.52
